Data taken from patent US20170129916A1, “NOVEL BETULINIC PROLINE IMIDAZOLE DERIVATIVES AS HIV INHIBITORS” (HETERO RESEARCH FOUNDATION, priority 2014, published 2017).

Key:
[1] = test system: HIV-1 strains, for e.g., 92HT599; test: Antiviral activity: p24 estimation in MT-2 cells infected with HIV-1; format: cell-based; conditions: Human immunodeficiency virus 1, MT2, MT-2 cells infected with HIV-1, p24, ~96 hours; for IC50: read-out: Antiviral activity IC50 (nM) Efficacy IC50
Method in brief: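 MT-2 cells infected with HIV-1 (e.g. 92HT599), plated at 30,000 cells/well with compound (DMSO ≤1%) and incubated ~96 h. Supernatant p24 quantified by kit; percent inhibition relative to vehicle controls.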

[2] = Single dose oral pharmacokinetic study; format: in vivo; conditions: mouse, mice, 30 mg/kg, plasma; for AUC(0-t): read-out: Mice oral PK @30 mg/kg AUC 0-t; for Cmax: read-out: Mice oral PK @30 mg/kg Cmax
Method in brief: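 Rats or mice received 30 mg/kg orally at 10 ml/kg dose volume. Retro-orbital blood was taken into K3 EDTA at defined intervals under light ether anesthesia and centrifuged to plasma. Plasma levels were measured by LC-MS-MS.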

Protocol for in vitro: On day 1 calculate the number of cells required for the assay and seed 3×10^4 cells in 200 μl per well. Weigh the compound and dissolve it in DMSO to get 10 mM stock which is further diluted to 3 mM and 1 mM. The drugs from these stocks were added to plate to get final concentration of 100 μM, 30 μM and 10 μM. […] Incubate for 4 days in 5% CO2 incubator at 37° C. On day 4, 100 μl of medium was removed from each well without disturbing the cells. Add 10 μl of MTT reagent and incubate for 4 hours at 5% CO2 incubator at 37° C. for formation of crystals. Add 200 μl of 0.1N acidic isopropanol to dissolve the crystals and read the plate at 590 nm.

SMILES	inhibition at 0.1 µM [1]	inhibition at 1 µM [1]	viability at 4 days, 10 μM (in vitro)	viability at 4 days, 30 μM (in vitro)	viability at 4 days, 100 μM (in vitro)	viability at 4 days, 0.1 nM (in vitro)	viability at 4 days, 1 nM (in vitro)	IC50 [1]	AUC(0-t) [2]	Cmax [2]
C=C(C)[C@@H]1CC[C@]2(C(=O)N3CCC[C@H]3c3ncc(-c4ccc(C)c(F)c4)[nH]3)CC[C@]3(C)[C@H](CC[C@@H]4[C@@]5(C)CC[C@H](OC(=O)CC(C)(C)C(=O)O)C(C)(C)[C@@H]5CC[C@]43C)[C@@H]12 [Compound 40]	29%	99%	80%	48%	25%					
C=C(C)[C@@H]1CC[C@]2(C(=O)N3CCC[C@H]3c3ncc(-c4ccc(OCC)cc4)[nH]3)CC[C@]3(C)[C@H](CC[C@@H]4[C@@]5(C)CC[C@H](OC(=O)[C@H]6C[C@@H](C(=O)O)C6(C)C)C(C)(C)[C@@H]5CC[C@]43C)[C@@H]12 [Compound 5, (1R,3S)-3-((((1R,3aS,5aR,5bR,7aR,9S,11aR,11bR,13aR,13bR)-3a-((S)-2-(5-(4-ethoxyphenyl)-1H-imidazol-2-yl)pyrrolidine-1-carbonyl)-5a,5b,8,8,11a-pentamethyl-1-(prop-1-en-2-yl)icosahydro-1H-cyclopenta[a]chrysen-9-yl)oxy)carbonyl)-2,2-dimethylcyclobutane-1-carboxylic acid]	0%	100%	100%	100%	98%					
CC(C)(CC(=O)O[C@H]1CC[C@]2(C)[C@H]3CC[C@@H]4[C@H]5[C@H](C(C)(O)CO)CC[C@]5(C(=O)N5CCC[C@@H]5c5nc(-c6ccccc6)no5)CC[C@@]4(C)[C@]3(C)CC[C@H]2C1(C)C)C(=O)O (stereo partly drawn) [Compound 42, 4-(((1R,3aS,5aR,5bR,7aR,9S,11aR,11bR,13aR,13bS)-1-(1,2-dihydroxypropan-2-yl)-5a,5b,8,8,11a-pentamethyl-3a-((R)-2-(3-phenyl-1,2,4-oxadiazol-5-yl)pyrrolidine-1-carbonyl)icosahydro-1H-cyclopenta[a]chrysen-9-yl)oxy)-2,2-dimethyl-4-oxobutanoic acid]	63%	73%				94%	94%			
COCCO[C@@H]1C[C@@H](c2nc(-c3cccc(F)c3)c[nH]2)N(C(=O)[C@]23CC[C@@H](C4(C)CC4)[C@@H]2[C@H]2CC[C@@H]4[C@@]5(C)CC[C@H](OC(=O)[C@H]6C[C@@H](C(=O)O)C6(C)C)C(C)(C)[C@@H]5CC[C@@]4(C)[C@]2(C)CC3)C1 [Compound 54, (1R,3S)-3-((((1R,3aS,5aR,5bR,7aR,9S,11aR,11bR,13aR,13bR)-3a-((2S,4R)-2-(4-(3-fluorophenyl)-1H-imidazol-2-yl)-4-(2-methoxyethoxy)pyrrolidine-1-carbonyl)-5a,5b,8,8,11a-pentamethyl-1-(1-methylcyclopropyl)icosahydro-1H-cyclopenta[a]chrysen-9-yl)oxy)carbonyl)-2,2-dimethylcyclobutane-1-carboxylic acid]	13%	93%	49%	16%	6%					
C=C(C)[C@@H]1CC[C@]2(C(=O)N3C[C@H](O)C[C@H]3c3nc(-c4ccccc4)c[nH]3)CC[C@]3(C)[C@H](CC[C@@H]4[C@@]5(C)CC[C@H](OC(=O)[C@H]6C[C@@H](C(=O)O)C6(C)C)C(C)(C)[C@@H]5CC[C@]43C)[C@@H]12 [Compound 29, (1R,3S)-3-((((1R,3aS,5aR,5bR,7aR,9S,11aR,11bR,13aR,13bR)-3a-((2S,4R)-4-hydroxy-2-(4-phenyl-1H-imidazol-2-yl)pyrrolidine-1-carbonyl)-5a,5b,8,8,11a-pentamethyl-1-(prop-1-en-2-yl)icosahydro-1H-cyclopenta[a]chrysen-9-yl)oxy)carbonyl)-2,2-dimethyl cyclobutane-1-carboxylic acid]	99%	99%						12.3 nM	57.5 µg·h/mL	4500 ng/mL
C=C(C)[C@@H]1CC[C@]2(C(=O)N3CCC[C@H]3c3ncc(-c4ccc(C)c(F)c4)[nH]3)CC[C@]3(C)[C@H](CC[C@@H]4[C@@]5(C)CC[C@H](OC(=O)[C@H]6C[C@@H](C(=O)O)C6(C)C)C(C)(C)[C@@H]5CC[C@]43C)[C@@H]12 [Compound 2, (1R,3S)-3-((((1R,3aS,5aR,5 bR,7aR,9S,11aR,11bR,13aR,13bR)-3a-((S)-2-(5-(3-fluoro-4-methylphenyl)-1H-imidazol-2-yl)pyrrolidine-1-carbonyl)-5a,5b,8,8,11a-pentamethyl-1-(prop-1-en-2-yl)icosahydro-1H-cyclopenta[a]chrysen-9-yl)oxy)carbonyl)-2,2-dimethylcyclobutane-1-carboxylic acid]	0%	97%	64%	31%	5%					
C=C(C)[C@@H]1CC[C@]2(C(=O)N3CCC[C@H]3c3ncc(-c4cccc(F)c4)[nH]3)CC[C@]3(C)[C@H](CC[C@@H]4[C@@]5(C)CC[C@H](OC(=O)[C@H]6C[C@@H](C(=O)O)C6(C)C)C(C)(C)[C@@H]5CC[C@]43C)[C@@H]12 [Compound 4, (1R,3S)-3-((((1R,3aS,5aR,5bR,7aR,9S,11aR,11bR,13aR,13bR)-3a-((S)-2-(5-(3-fluorophenyl)-1H-imidazol-2-yl)pyrrolidine-1-carbonyl)-5a,5b,8,8,11a-pentamethyl-1-(prop-1-en-2-yl)icosahydro-1H-cyclopenta[a]chrysen-9-yl)oxy)carbonyl)-2,2-dimethylcyclobutane-1-carboxylic acid]								1.67 nM	398 µg·h/mL	14800 ng/mL
C=C(C)[C@@H]1CC[C@]2(C(=O)N3CCC[C@H]3c3nc(C(C)(C)C)co3)CC[C@]3(C)[C@H](CC[C@@H]4[C@@]5(C)CC[C@H](OC(=O)[C@H]6C[C@@H](C(=O)O)C6(C)C)C(C)(C)[C@@H]5CC[C@]43C)[C@@H]12 [Compound 12, (1R,3S)-3-((((1R,3aS,5aR,5bR,7aR,9S,11aR,11bR,13aR,13bR)-3a-((S)-2-(4-(tert-butyl)oxazol-2-yl)pyrrolidine-1-carbonyl)-5a,5b,8,8,11a-pentamethyl-1-(prop-1-en-2-yl)icosahydro-1H-cyclopenta[a]chrysen-9-yl)oxy)carbonyl)-2,2-dimethylcyclobutane-1-carboxylic acid]								139 nM	395 µg·h/mL	13200 ng/mL
C=C(C)[C@@H]1CC[C@]2(C(=O)N3CCC[C@H]3c3ncc(-c4ccccn4)[nH]3)CC[C@]3(C)[C@H](CC[C@@H]4[C@@]5(C)CC[C@H](OC(=O)[C@H]6C[C@@H](C(=O)O)C6(C)C)C(C)(C)[C@@H]5CC[C@]43C)[C@@H]12 [Compound 1, (1R,3S)-2,2-dimethyl-3-((((1R,3aS,5aR,5bR,7aR,9S,11aR,11bR,13aR,13bR)-5a,5b,8,8,11a-pentamethyl-1-(prop-1-en-2-yl)-3a-((S)-2-(5-(pyridin-2-yl)-1H-imidazol-2-yl)pyrrolidine-1-carbonyl)icosahydro-1H-cyclopenta[a]chrysen-9-yl)oxy)carbonyl)cyclobutane-1-carboxylic acid]								8.06 nM	177 µg·h/mL	6290 ng/mL
